Results from patent US10143691B2, “Pathogenic control of apoptosis” (CSIR, priority 2014, dated 2018).
“Also recorded” adds a separate entry of the source. Like-named read-outs stand apart in the source and are kept apart here.

Legend:
[1] = system: hnRNP-K; experiment: Immunofluorescence of hnRNP-K cellular location in Ghost(3) cells; assay type: cell-based
Description: (§1) For each experiment, Ghost(3) cells or IPSC-derived primary macrophages were infected or treated with 500 nM Doxorubicin on coverslips, fixed for 10 mins in fresh 4% paraformaldehyde at room temperature, then washed 3 times in PBS and permeabilised for 10 mins in ice-cold methanol at […]. Coverslips were washed once in PBS and incubated in blocking buffer (5% goat serum, 0.3% TritonX100 in PBS) for 60 mins at room temperature. Cells were incubated in primary antibody solution (1% BSA, 0.3% Triton X100 in PBS) overnight at 4° C. Double strand breaks were detected using rabbit polyclonal anti-phosphohistone H2A.X Ser139 (Cell Signaling). Activated ATM was detected using rabbit monoclonal anti-phosphoATM Ser1981 (Cell Signaling). The ability of p53 to regulate apoptosis was detected using rabbit polyclonal antiphosphop53 Ser46 (Cell Signaling). Viral p24 was detected using mouse monoclonal anti-HIV1p24 (AIDS Research and Reference Reagent Program, Division of AIDS, NIAID, NIH). HuR was detected using mouse monoclonal anti-HuR 3A2 (Santa Cruz Biotechnology). hnRNPK was detected using goat polyclonal anti-hnRNPK P20 (Santa Cruz Biotechnology). Coverslips were washed 3 times (5 mins each on an orbital shaker) with wash buffer (0.05% Tween20 in PBS), followed by incubation with secondary antibodies conjugated to either Atto550 or Atto565 or Atto647 for 60 mins at room temperature. Coverslips were washed 3 times (5 mins each on an orbital shaker) with wash buffer (0.05% Tween20 in PBS). Coverslips were incubated in equilibration buffer (0.4% glucose, 2×SCC) for 5 mins and counter stained with 1 mg/ml DAPI (4′,6-diamidino-2-phenylindole; Life Technologies). Coverslips were mounted in glox buffer (3.7 mg/ml glucose oxidase, 1 U catalase) and imaged.
For each experiment, cells were infected or treated with drugs on coverslips, fixed for 10 mins in fresh 4% paraformaldehyde at room temperature, then washed 3 times in PBS and permeabilised for 10 mins in ice-cold methanol at −20° C. Coverslips were washed once in PBS and incubated in blocking buffer (5% goat serum, 0.3% Triton-X100 in PBS) for 60 mins at room temperature. Cells were incubated in primary antibody solution (1% BSA, 0.3% Triton X-100 in PBS) overnight at 4° C. Double strand breaks were detected using rabbit polyclonal anti-phospho-histone H2A.X Ser139 (Cell Signaling). Activated ATM was detected using rabbit monoclonal anti-phospho-ATM Ser1981 (Cell Signaling). The ability of p53 to regulate apoptosis was detected using rabbit polyclonal anti-phospho-p53 Ser46 (Cell Signaling). Viral p24 was detected using mouse monoclonal anti-HIV-1-p24 (AIDS Research and Reference Reagent Program, Division of AIDS, NIAID, NIH). HuR was detected using mouse monoclonal anti-HuR 3A2 (Santa Cruz Biotechnology). hnRNP-K was detected using goat polyclonal anti-hnRNP-K P-20 (Santa Cruz Biotechnology). Coverslips were washed 3 times (5 mins each on an orbital shaker) with wash buffer (0.05% Tween-20 in PBS), followed by incubation with secondary antibodies conjugated to either Atto-550 or Atto-565 or Atto-647 for 60 mins at room temperature. Coverslips were washed 3 times (5 mins each on an orbital shaker) with wash buffer (0.05% Tween-20 in PBS). Coverslips were incubated in equilibration buffer (0.4% glucose, 2×SCC) for 5 mins and counter stained with 1 mg/ml DAPI (4′,6-diamidino-2-phenylindole; Life Technologies). Coverslips were mounted in glox buffer (3.7 mg/ml glucose oxidase, 1 U catalase) and imaged.

[2] = system: Ghost(3) cells; assay type: cell-based; settings: for apoptosis of HIV-infected cells: HIV-infected Ghost(3) cells exposed to inhibitor (10 μM), 30 hours post-infection
Description: Apoptosis was measured in Ghost(3) cells 30 hours post-infection or drug treatment using the NucView™ 488 Caspase3 Assay Kit (Biotium) in a 96 well format. Data was analysed in MATLAB using a probabilistic region method to measure cell attachment and expressed as percentage cell survival. […] An average of 3000 cells per condition were analysed with the exception of cells treated with Doxorubicin followed by HIV-infection (FIG. 3), cells transfected with lincRNAp21 overexpression constructs followed by Doxorubicin treatment, and cells transfected with full-length lincRNAp21, infected with HIV1 and treated with Nutlin3 (FIG. 25). These latter conditions ( ? ) yielded too few attached cells (<20) at 30 hours for similar analysis.
Apoptosis was measured in Ghost(3) cells 30 hours post-infection or drug treatment using the NucView™ 488 Caspase-3 Assay Kit (Biotium) in a 96 well format. Data was analysed in MATLAB using a probabilistic region method to measure cell attachment and expressed as percentage cell survival. […] An average of 3000 cells per condition were analysed with the exception of cells treated with Doxorubicin followed by HIV-infection (FIG. 27), cells transfected with lincRNA-p21 overexpression constructs followed by Doxorubicin treatment (FIG. 36), and cells transfected with full-length lincRNA-p21, infected with HIV-1 and treated with Nutlin3 (FIG. 45). These latter conditions ( ? ) yielded too few attached cells (<20) at 30 hours for similar analysis.

[3] = system: HuR; experiment: Immunofluorescence of HuR cellular location in Ghost(3) cells; assay type: cell-based; settings: HIV-infected Ghost(3) cells with inhibitor added (10 μM)
Description: as §1, with “Coverslips were washed 3 times (5 mins each on an orbital shaker) with wash buffer (0.05% Tween20 in PBS), followed by incubation with secondary antibodies conjugated to either Atto550 or Atto565 or Atto647 for 60 mins at room temperature. Coverslips were washed 3 times (5 mins each on an orbital shaker) with wash buffer (0.05% Tween20 in PBS). Coverslips were incubated in equilibration buffer (0.4% glucose, 2×SCC) for 5 mins and counter stained with 1 mg/ml DAPI (4′,6-diamidino-2-phenylindole; Life Technologies). Coverslips were mounted in glox buffer (3.7 mg/ml glucose oxidase, 1 U catalase) and imaged.” left out
(§2) For each experiment, cells were infected or treated with drugs on coverslips, fixed for 10 mins in fresh 4% paraformaldehyde at room temperature, then washed 3 times in PBS and permeabilised for 10 mins in ice-cold methanol at −20° C. […] Double strand breaks were detected using rabbit polyclonal anti-phospho-histone H2A.X Ser139 (Cell Signaling). Activated ATM was detected using rabbit monoclonal anti-phospho-ATM Ser1981 (Cell Signaling). The ability of p53 to regulate apoptosis was detected using rabbit polyclonal anti-phospho-p53 Ser46 (Cell Signaling). Viral p24 was detected using mouse monoclonal anti-HIV-1-p24 (AIDS Research and Reference Reagent Program, Division of AIDS, NIAID, NIH). HuR was detected using mouse monoclonal anti-HuR 3A2 (Santa Cruz Biotechnology). hnRNP-K was detected using goat polyclonal anti-hnRNP-K P-20 (Santa Cruz Biotechnology). […]

[4] = system: HIV-1; experiment: HIV-1 infection/replication in Ghost(3) reporter cells (LTR-driven GFP expression); assay type: cell-based; settings: Ghost(3) cells exposed to HIV-1 and treated
Description: Viral stocks were titred using TZMBI cells and used to infect Ghost(3) cells using an MOI=1.0, or IPSO-derived macrophages using an MOI=0.5. Where indicated, Ghost(3) cells were treated with 10 μM of either Raltegravir, Maraviroc, Tenofovir (AIDS Research and Reference Reagent Program, Division of AIDS, NIAID, NIH) or Nutlin3a (Sigma) for up to 48 hours.
Viral stocks were titred using TZM-BI cells and used to infect Ghost(3) cells using an MOI=1.0, or IPSO-derived macrophages using an MOI=0.5. Where indicated, cells were treated with 10 μM of either Raltegravir, Maraviroc, Tenofovir (AIDS Research and Reference Reagent Program, Division of AIDS, NIAID, NIH) or Doxorubicin (Sigma-Aldrich), or Nutlin3a (Sigma-Aldrich), or MAP2K1 inhibitor (U-0126) or ERK2 inhibitor (FR180204) for up to 48 hours.

[5] = system: lincRNAp21; experiment: lincRNA-p21 expression by RNA FISH spot counts and quantitative RT-PCR; assay type: cell-based, human; settings: HIV-infected Ghost(3) cells, qRT-PCR relative to HPRT
Description: RNA FISH on Ghost(3) cells was performed according to Raj, 2008 and on primary macrophages according to Schaffer, 2013. For both methods 48 20mer probes (Biosearch) targeted to human lincRNAp21 were synthesised baring a […] C6dT. The amino group was subsequently conjugated to the following NHSester dyes: ATTO565, ATTO647N (ATTOTEC) or Alexa Fluor 647 (Invitrogen). Briefly, oligonucleotide probes were ethanol precipitated and resuspended in 0.1 M sodium tetraborate (Sigma). Approximately 0.3 mg of the NHSester dye (ATTOTEC) was dissolved in dimethyl sulphoxide (Sigma). The dye solution was added to the probe solution and incubated overnight in the dark at 37° C. Following the conjugation reaction, the probes were ethanol precipitated overnight, and resuspended in 0.1 M triethyl ammonium (Sigma). Conjugated probes were separated and purified to enrich for dyeconjugated probes by reverse phase HPLC on a C18 column. […]
For each experiment, Ghost(3) cells or IPSO-derived primary macrophages were infected or treated with 500 nM Doxorubicin over time and total RNA was extracted from cells using TRIzol® (Life Technologies), treated with RQ1 RNase-free DNase (Promega) and reverse transcribed using SuperScript III Reverse Transcriptase (Life Technologies). Quantitative RTPCR was performed using Sso Fast EvaGreen™ supermix (BioRad) on a BioRad CFX96 real-time PCR detection system. […]

[6] = system: H2A.XpSer139; experiment: Immunofluorescence staining of double strand breaks (H2A.XpSer139); assay type: cell-based; settings: HIV-1 infected cells treated with 10 μM drug
Description: as §1
as §2, with “C. Coverslips were washed once in PBS and incubated in blocking buffer (5% goat serum, 0.3% Triton-X100 in PBS) for 60 mins at room temperature.” for “C.”

[7] = cells transfected 24 hours with full-length or truncated lincRNA-p21, then Nutlin3a, absence of HIV-1
[8] = full-length lincRNA-p21 transfected 24 hours, HIV-1 infected 24 hours, then Nutlin3a
[9] = truncated lincRNA-p21 transfected 24 hours, HIV-1 infected 24 hours, then Nutlin3a
[10] = HIV-infected Ghost(3) cells exposed to MAP2K1 or ERK2 inhibitor (10 μM), 30 hours post-infection
[11] = Ghost(3) cells exposed to HIV-1 and concurrently treated with 10 μM antiretroviral

## COc1ccc(C2=NC(c3ccc(Cl)cc3)C(c3ccc(Cl)cc3)N2C(=O)N2CCNC(=O)C2)c(OC(C)C)c1 (single isomer, unassigned; (-)) [Nutlin3a, (−)-4-(4,5-Bis(4-chlorophenyl)-2-(2-isopropoxy-4-methoxyphenyl)-4,5-dihydro-1H-imidazole-1-carbonyl)piperazin-2-one]
[1]; Ghost(3) cells, Nutlin3a (10 μM) added 24 hours post HIV-1 infection
  cellular location of hnRNP-K: nuclear localisation of hnRNP-K at 48 hours in GFP-positive cells only; also recorded: nuclear localisation of hnRNPK in HIV-infected cells only; also recorded: nuclear localisation of hnRNP-K in HIV-infected cells only; also recorded: nuclear localisation of hnRNPK at 48 hours in GFP-positive cells only
[1]; Ghost(3) cells, drug only, no HIV infection
  cellular location of hnRNP-K: cytoplasmic hnRNP-K; also recorded: no nuclear hnRNPK; also recorded: no nuclear hnRNP-K; also recorded: cytoplasmic hnRNPK
[1]; Nutlin3a added prior to HIV1 infection
  cellular location of hnRNP-K: no nuclear hnRNPK was observed
[1]; [7]
  cellular location of hnRNP-K: cytoplasmic hnRNPK; also recorded: cytoplasmic hnRNP-K
[1]; [8]
  cellular location of hnRNP-K: showed nuclear hnRNP-K; also recorded: show nuclear hnRNPK
[1]; [9]
  cellular location of hnRNP-K: show nuclear hnRNP-K; also recorded: also showed nuclear hnRNPK; also recorded: also showed nuclear hnRNP-K; also recorded: show nuclear hnRNPK
[2]; [7]
  apoptosis: no apoptosis
[2]; [8]
  apoptosis: undergo apoptosis within 24 hours of Nutlin3a addition; also recorded: underwent apoptosis
[2]; [9]
  apoptosis: do not undergo apoptosis; also recorded: did not undergo apoptosis

## Nc1n[nH]c2nnc(-c3c(-c4ccccc4)nn4ccccc34)cc12 [ERK2 inhibitor, 5-(2-phenylpyrazolo[1,5-a]pyridin-3-yl)-1H-pyrazolo[3,4-c]pyridazin-3-amine]
[3]
  cellular location of HuR: Cytoplasmic HuR is not observed; also recorded: HIV-1 able to sequester HuR in the nucleus
[1]; [10]
  cellular location of hnRNP-K: strong nuclear localisation of hnRNP-K
[2]
  apoptosis of HIV-infected cells: infected cells underwent apoptosis

## N#CC(=C(N)Sc1ccccc1N)C(C#N)=C(N)Sc1ccccc1N [MAP2K1 inhibitor, 1,4-diamino-2,3-dicyano-1,4-bis(2-aminophenylthio)butadiene]
[3]
  cellular location of HuR: cytoplasmic (and nuclear) HuR
[1]; [10]
  cellular location of hnRNP-K: strong nuclear localisation of hnRNP-K
[2]
  apoptosis of HIV-infected cells: infected cells underwent apoptosis

## Cc1nnc(C(=O)NC(C)(C)c2nc(C(=O)NCc3ccc(F)cc3)c(O)c(=O)n2C)o1 [Raltegravir]
[4]
  HIV-1 infection / replication (GFP expression): no GFP expression
[5]
  lincRNA-p21 expression: no change in lincRNAp21 expression; also recorded: does not affect lincRNAp21 expression
[6]
  H2A.X staining in HIV-infected cells: abrogate this effect
[1]; [11]
  cellular location of hnRNP-K: no nuclear hnRNPK over time; also recorded: cytoplasmic hnRNPK

## C[C@H](Cn1cnc2c(N)ncnc21)OCP(=O)(O)O [Tenofovir]
[1]; [11]
  cellular location of hnRNP-K: no nuclear hnRNPK

## Maraviroc
[4]
  HIV-1 infection / replication (GFP expression): remained uninfected
[1]; [11]
  cellular location of hnRNP-K: no nuclear hnRNPK
